Columns and labels:
Type in all cases: cell-based
IKZF3 in L363 cells = biological target: T1, IKZF3 in L363 cells (Homo sapiens, UniProt Q96SW2+Q9UKT9); assay: Degradation of IKZF3 in L363 cells (Western blot); settings: 1000 nM, 16 hours
T1 construct: endogenous in cells; host or cells: L363
Description: (§1) The 24-well cell culture plate was inoculated with 0.95 mL L363 cells (Nanjing Co-bioer) per well with a cell density of 6×10^5 cells/well. The cell plate was placed in a 5% carbon dioxide incubator and cultured at 37° C. for 8 hours, then 50 μL of compound solution was added. The final concentration of the compound was 1000 nM. After continuing to culture for 16 hours, the cells were collected into a 1.5 mL centrifuge tube and centrifuged at 3000 rpm and 4° C. for 5 minutes. Cell precipitation was cleaned twice with 1×DPBS, resuspended cells were lysed with 100 μL lysate (cell lysate was Western and IP cell lysate (Beyotime), supplemented with 1 mM mixture of phenylmethylsulfonyl fluoride and protease inhibitor (Beyotime)), left on ice for 30 minutes, then centrifuged at 14000 g at 4° C. for 10 minutes, and the supernatant was taken to detect IKZF1 and IKZF3 protein level by Western blot.
(§2) The total protein concentration in the supernatant of cell lysis was determined by BCA protein quantitative kit (Tiangen). According to the concentration of total protein detected by BCA, the supernatant was adjusted to 0.2 μg/μL with PBS and 5× SDS-PAGE protein loading buffer (Beyotime), bathed in water at 100° C. for 10 minutes, then placed in ice bath for 5 minutes, centrifuged at 14000 g and 4° C. for 5 minutes, and then collected as WB loading sample. Prefabricated glue (KeyGEN) was used for protein electrophoresis with a loading amount of 10 μL (total protein 2 μg). After Tris-MOPS-SDS electrophoresis solution (Adamas), 120V constant pressure electrophoresis was performed. After electrophoresis, the protein on the adhesive strip was transferred to PVDF membrane with a constant current of […] for 50 minutes. After the membrane was transferred, the membrane was incubated in 5% bovine serum albumin solution for 2 hours at room temperature. After blocking, PVDF membranes were incubated with IKZF1 primary antibody (CST) and IKZF3 primary antibody (Abcam) overnight at 4°, the membranes were washed with TBST buffer (2.4 g Tris, 8.8 g NaCl, 1.5 mL Tween 20, pH adjusted to 7.4, constant volume to IL) for 30 minutes, incubated with secondary antibody (Abcam) for 2 hours at room temperature, finally incubated with Clarity Western ECL Substrate(BIO-RAD) for 5 minutes for luminescence development, chemiluminescence imaging system (Clinx, chemiScope 6200 Touch) for development and protein mapping photography. The protein map was analyzed by Clinx chemiluminescence analysis software for grayscale values. Using the formula: grayscale correction value=(target protein grayscale value/corresponding internal reference grayscale value)×10^3, the grayscale correction value of each sample was calculated. The degradation rate was calculated by comparing with the grayscale correction value of the control group.

[1] = tested on: Interleukin-6 (IL-6) in LPS-induced human PBMC; assay: Cytokine secretion of LPS-induced human PBMC, IL-6 AlphaLISA detection; settings: inhibition of IL-6, compound 1 hour or 20 hours, then LPS 100 ng/mL 5 hours
Description: Frozen human PBMC (Milestone, PB010C) was resuspended to RPMI 1640 medium (Gibco, A1049101) after resuscitation, supplemented with 10% fetal bovine serum (Gibco, 10099141), 100 U/mL penicillin and 100 μg/mL streptomycin (Gibco, 15140122). On the same day, 150 μL of PBMC was spread in each well of a 96-well transparent cell plate (Labserv, 310109008), so that the cell density was 2×10^5 cells/well. Then 50 μL diluted compound solution was added to the corresponding cell-covered wells to make the final concentration of the compound in the range of 0.026-10000 nM. The final concentration of DMSO was 0.25%. After the drug-treated cell plate was cultured at 37° C. for 1 hour or 20 hours in a 5% CO2 incubator, 10 μL LPS (0111:B4) (Sigma, L4391) was added with a final concentration of 100 ng/mL. The cell plate was again placed in a 5% CO2 incubator at 37° C. for 5 hours, centrifuged at 2000 rpm for 10 minutes, and 100 μL cell supernatant was taken from each well and transferred to a new 96-well transparent cell plate for cytokine concentration test, which was frozen at −80° C. to be tested.
The concentration of IL-6 in the supernatant of LPS-induced human PBMC cells was determined using interleukin-6 (IL-6) AlphaLISA detection kit (PerkinElmer, AL223 C).
According to the product instructions, IL-6 standard solutions with different concentrations were prepared in the concentration range of […]. 2 μL of IL-6 standard solution at various concentrations and the cell supernatant sample to be tested were taken, respectively added to white 384 well plates (PerkinElmer, 6007299), then a mixed solution of 8 μL of 5× anti-IL-6 receptor beads (final concentration: 10 μg/mL) and biotin-labeled anti-IL-6 antibody (final concentration 1 nM) was added to each well, and incubated at 23° C. for 60 minutes. Finally, 10 μL of 2× streptavidin-labeled donor beads (final concentration: 40 μg/mL) were added to each well and incubated at 23° C. for 30 minutes in the absent of light. After the incubation, the AlphaLISA signal value was determined in the AlphaScreen standard setting mode on the microplate reader EnVision(PerkinElmer, 2105). The standard curve was drawn by the AlphaLISA signal value of each concentration IL-6 standard solution, and then based on the corresponding concentration on the standard curve for the AlphaLISA signal value of the sample to be tested, the IL-6 concentration of each cell lysis supernatant was determined. Compared with the IL-6 concentration of the control group, the inhibition rate of the compound at each concentration was calculated, and then IC50 value of the compound was calculated by fitting the nonlinear curve with the logarithmic concentration-inhibition rate by GraphPad Prism 7.

IKZF1 in L363 cells = biological target: T2, IKZF1 in L363 cells (Homo sapiens, UniProt Q13422+Q96SW2); assay: Degradation of IKZF1 in L363 cells (Western blot); settings: 1000 nM, 16 hours
T2 construct: endogenous in cells; host or cells: L363
T2 sequence (Q13422 whole entry): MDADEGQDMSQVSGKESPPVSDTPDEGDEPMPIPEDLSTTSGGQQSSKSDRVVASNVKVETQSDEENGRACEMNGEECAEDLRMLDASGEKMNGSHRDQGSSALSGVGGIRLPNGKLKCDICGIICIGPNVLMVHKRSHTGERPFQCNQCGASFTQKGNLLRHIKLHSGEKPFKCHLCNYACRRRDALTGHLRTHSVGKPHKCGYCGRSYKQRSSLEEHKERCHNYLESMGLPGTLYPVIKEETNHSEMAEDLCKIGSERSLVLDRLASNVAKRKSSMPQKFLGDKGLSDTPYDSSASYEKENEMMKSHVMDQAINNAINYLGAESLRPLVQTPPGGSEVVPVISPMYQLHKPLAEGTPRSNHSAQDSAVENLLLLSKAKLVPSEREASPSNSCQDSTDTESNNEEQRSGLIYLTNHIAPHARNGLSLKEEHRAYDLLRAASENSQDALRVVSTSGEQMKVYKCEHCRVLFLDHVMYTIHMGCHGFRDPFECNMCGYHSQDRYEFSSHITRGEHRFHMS
T2 sequence (Q96SW2 whole entry): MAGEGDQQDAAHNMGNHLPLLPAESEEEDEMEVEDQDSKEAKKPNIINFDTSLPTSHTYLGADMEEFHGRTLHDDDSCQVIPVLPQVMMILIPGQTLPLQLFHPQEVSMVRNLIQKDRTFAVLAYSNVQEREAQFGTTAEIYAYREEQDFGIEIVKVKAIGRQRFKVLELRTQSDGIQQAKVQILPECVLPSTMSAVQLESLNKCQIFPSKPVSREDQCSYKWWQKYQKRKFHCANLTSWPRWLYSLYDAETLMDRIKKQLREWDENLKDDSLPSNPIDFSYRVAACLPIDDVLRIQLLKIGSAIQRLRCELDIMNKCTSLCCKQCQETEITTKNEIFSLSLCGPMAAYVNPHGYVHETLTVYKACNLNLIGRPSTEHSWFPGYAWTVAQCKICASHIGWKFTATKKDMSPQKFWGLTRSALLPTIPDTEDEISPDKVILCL
T2 sequence (Q16531 whole entry partner): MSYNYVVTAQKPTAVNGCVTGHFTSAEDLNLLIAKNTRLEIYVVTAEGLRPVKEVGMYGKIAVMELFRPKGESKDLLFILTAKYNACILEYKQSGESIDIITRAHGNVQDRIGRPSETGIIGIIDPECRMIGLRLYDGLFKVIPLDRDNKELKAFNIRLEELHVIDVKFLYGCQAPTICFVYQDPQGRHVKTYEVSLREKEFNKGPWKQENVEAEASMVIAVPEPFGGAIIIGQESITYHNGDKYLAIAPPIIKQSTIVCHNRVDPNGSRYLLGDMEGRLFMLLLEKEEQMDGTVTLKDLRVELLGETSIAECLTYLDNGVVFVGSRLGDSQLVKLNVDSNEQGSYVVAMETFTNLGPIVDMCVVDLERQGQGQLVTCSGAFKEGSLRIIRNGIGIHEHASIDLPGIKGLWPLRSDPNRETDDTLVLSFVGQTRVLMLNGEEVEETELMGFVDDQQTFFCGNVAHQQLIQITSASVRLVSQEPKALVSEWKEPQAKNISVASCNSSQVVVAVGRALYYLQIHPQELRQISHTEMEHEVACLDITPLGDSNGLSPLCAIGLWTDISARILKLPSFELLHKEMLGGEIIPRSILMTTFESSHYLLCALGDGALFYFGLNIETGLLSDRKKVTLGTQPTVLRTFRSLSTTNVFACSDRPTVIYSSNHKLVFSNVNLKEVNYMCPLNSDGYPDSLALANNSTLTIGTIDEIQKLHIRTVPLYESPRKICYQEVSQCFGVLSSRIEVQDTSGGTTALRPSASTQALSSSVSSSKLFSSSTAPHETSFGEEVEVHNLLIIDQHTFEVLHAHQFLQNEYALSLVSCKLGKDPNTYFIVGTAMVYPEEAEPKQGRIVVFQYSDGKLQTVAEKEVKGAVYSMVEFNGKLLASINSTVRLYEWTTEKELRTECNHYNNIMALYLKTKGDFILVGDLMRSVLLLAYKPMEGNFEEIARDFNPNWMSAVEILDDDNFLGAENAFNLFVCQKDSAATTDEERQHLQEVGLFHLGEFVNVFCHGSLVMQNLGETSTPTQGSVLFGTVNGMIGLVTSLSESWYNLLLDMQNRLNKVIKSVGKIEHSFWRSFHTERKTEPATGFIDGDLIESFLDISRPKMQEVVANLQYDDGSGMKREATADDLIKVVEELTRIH
Description: as §1, §2

T1 sequence (Q9UKT9 whole entry): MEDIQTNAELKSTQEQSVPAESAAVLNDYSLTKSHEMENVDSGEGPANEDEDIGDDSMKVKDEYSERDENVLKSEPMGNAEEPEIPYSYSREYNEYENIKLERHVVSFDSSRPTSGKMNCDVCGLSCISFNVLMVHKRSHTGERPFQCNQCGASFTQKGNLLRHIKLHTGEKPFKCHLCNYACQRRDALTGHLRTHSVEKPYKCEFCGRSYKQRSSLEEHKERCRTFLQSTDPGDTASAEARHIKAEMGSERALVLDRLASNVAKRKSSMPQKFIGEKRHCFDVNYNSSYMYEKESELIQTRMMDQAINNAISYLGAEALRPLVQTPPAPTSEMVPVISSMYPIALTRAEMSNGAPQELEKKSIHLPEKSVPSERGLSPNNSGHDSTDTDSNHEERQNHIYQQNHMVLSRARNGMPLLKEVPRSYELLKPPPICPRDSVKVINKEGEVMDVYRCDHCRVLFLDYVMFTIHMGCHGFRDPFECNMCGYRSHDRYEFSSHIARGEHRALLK
T1 sequence (Q96SW2 whole entry): as the sequence (Q96SW2 whole entry) above
T1 sequence (Q16531 whole entry partner): as the sequence (Q16531 whole entry partner) above

IKZF3 degradation rate (IKZF3 in L363 cells) [%]	IKZF1 degradation rate (IKZF1 in L363 cells) [%]	Compound	IC50 [1] [nM]
71.2 ± 5.7	47.5 ± 9.7	COc1cc2nn(C3CCN(CC4CCN(CCOc5ccc6c(c5)C(=O)N(C5CCC(=O)NC5=O)C6=O)CC4)CC3)cc2cc1NC(=O)c1cccc(C(F)(F)F)n1 (stereo not drawn) [Control group 2, N-(2-(1-((1-(2-((2-(2,6-dioxopiperidin-3-yl)-1,3-dioxoisoindol-5-yl)oxy)ethyl)piperidin-4-yl)methyl)piperidin-4-yl)-6-methoxy-2H-indazol-5-yl)-6-(trifluoromethyl) pyridinecarboxamide, reference compound]	2050
92.8 ± 5.0	97.2 ± 2.6	CN(CC1CCN(c2cccc3c2C(=O)N(C2CCC(=O)NC2=O)C3=O)CC1)C[C@H]1CC[C@H](n2cc3cc(NC(=O)c4cccc(C(F)(F)F)n4)c(C(C)(C)O)cc3n2)CC1 (stereo partly drawn) [Control group 3, N-(2-((1r,4r)-4-((((1-(2-(2,6-dioxopiperidin-3-yl)-1,3-dioxoisoindolin-4-yl)piperidin-4-yl)methyl) (methyl)amino)methyl)cyclohexyl)-6-(2-hydroxyprop-2-yl)-2H-indazol-5-yl)-6-(trifluoromethyl) pyridinecarboxamide, reference compound]	47.5
17.8 ± 3.6	8.4 ± 13.9	CC(C)(O)c1cc2nn(C3CCN(CC4CCC5(CC4)CCN(C(=O)c4ccc(Cl)c(N6CCC(=O)NC6=O)c4)CC5)CC3)cc2cc1NC(=O)c1cccc(C(F)(F)F)n1 [Example 31, N-(2-(1-((3-(4-chloro-3-(2,4-dioxotetrahydro-pyrimidin-1 (2H)-yl)benzoyl)-3-azaspiro [5.5]undec-9-yl)methyl)piperdin-4-yl)-6-(2-hydroxyprop-2-yl)-2H-indazol-5-yl)-6-(trifluoro-methyl) pyridinecarbox-amide]	1.8

Reference: US20230234936A1, “COMPOUND FOR TARGETING AND DEGRADING PROTEIN, AND PREPARATION METHOD THEREFOR AND USE THEREOF” (SHANGHAI LEADINGTAC PHARMACEUTICAL CO., LTD., priority 2020, published 2023)
